Experimental data reported in patent publication US8592421B2, “Cyclic bioisosters of purine system derivatives and a pharmaceutical composition based thereon” (priority 2003, dated 2013).

Experiments:
[1] = Chronic toxicity of suppositories: indexes of peripheral blood; assay type: in vivo, rats; conditions: rat, in vivo
Method: (§1) Two doses of preparations used in the experiments: 50 mg/kg and 500 mg/kg. Before the administration, the suppositories were softened by heating in a glass water bath at a temperature of 38-39° C., the soft mass was collected in tuberculin syringe in a volume of 1 ml, a needle with oliva was attached to the syringe, and the preparatory mass was introduced into the rectum of the animal for a depth of 1.5-2.0 cm. The animals of the control group were administered with sterile medical liquid paraffin in a volume corresponding to the volume of the investigated suppository. A complete course of administration of drugs to the animals was two months. A complex of laboratory diagnostic investigations was carried out one month after the beginning of the administration of the preparation to the animal—in a middle of the course (8 animals), two months after ending the course (8 animals) and three months after ending the recovery period of one month (8 animals). The mass of the body of the rats in the first month of administration of the preparation was determined weekly, and then once in two weeks. On the basis of the dynamics of an index of the mass of the animal body, the volume of preparation being administered was corrected taking into account the test dose.

[2] = Chronic toxicity of suppositories: biochemical indexes of blood serum; assay type: in vivo, rats; conditions: rat, in vivo;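 further: inbred rats dosed rectally with softened suppositories, controls given matching volumes of sterile medical liquid paraffin, serum sampled one month into a two-month dosing course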
Method: as §1

[3] = Chronic toxicity of suppositories: indexes of urine; assay type: in vivo, rats; conditions: rat, in vivo
Method: The experiments were conducted on inbred rats.

[4] = Morphine abstinence model: indicator enzymes ALT, AST, γ-GTP in blood plasma; conditions: 20.0 mg/kg intramuscularly three times a day; for γ-GTP in blood plasma, Ci: control 6.261 ± 1.80; for ALT in blood plasma, Ci: control 106.76 ± 111.35; for AST in blood plasma, Ci: control 179.881 ± 11.94
Method: The experiments were carried out on rats in series of 7 animals on each compound according to the invention. Non-morphinized animal with not administered with compounds according to the invention were used as a control group. […] Then the rats were decapitated, the blood from somnolent arteries was collected in test tubes with solution EDTA as an anticoagulant, centrifuged at 1500 g for 15 minutes at 4° C.
To estimate possible hepatoprotective action of the compounds according to the invention under conditions of development of an oxidizing stress in the liver cells, effect of these compounds on the most important biochemical blood indexes, in particular, on the content in blood plasma of indicator enzyme of aspartateaminotransferase (AST), alanineaminotransferase (ALT), γ-glutamiletranspeptidase (γ-GTP) was investigated. The content of enzymes was estimated by their catalyzing activity in blood plasma.
The activity of AST, ALT and γ-GTP was determined by means of diagnostic sets DiaSys, Germany.

## Nc1ccnc2c(=O)n([C@@H]3O[C@H](CO)[C@@H](O)[C@H]3O)[nH]c(=O)c12 [Compound 2, 4-amino-7-(β-D-ribofuranosile)pyrido[2,3-d]-6H-pyridazine-5,8-dione]
[1]; 50 mg/kg
  Average volume of erythrocytes: 83.4 ± 1.4 Mkm^3
  Basophiles: 0%
  Juveniles: 0%
  Reticulocytes: 2.8 ± 0.2/2.8 ± 0.2%
[1]; 500 mg/kg
  Average volume of erythrocytes: 85.2 ± 1.2 Mkm^3
  Basophiles: 0%
  Juveniles: 0%
[2]; 50 mg/kg
  ALT in blood serum: 10.84 ± 2.02 unit/l
  AST in blood serum: 20.41 ± 3.06 unit/1
  Alkalinous phosphatase in blood serum: 42.12 ± 4.23 unit/l
  Bilirubin in blood serum: 44.38 ± 4.12 mmol/L
  Cholesterol in blood serum: 2.77 ± 0.71 mmol/L
  Creatinine in blood serum: 47.38 ± 3.26 mkmol/l
  Glucose in blood serum: 9.85 ± 0.37 mM
  Total protein in blood serum: 87.34 ± 5.56 g/L
  Urea in blood serum: 11.02 ± 0.73 Mkmol/l
[2]; 500 mg/kg
  ALT in blood serum: 11.23 ± 1.70 unit/l
  AST in blood serum: 20.13 ± 2.95 unit/1
  Alkalinous phosphatase in blood serum: 43.4 ± 2.12 unit/l
  Bilirubin in blood serum: 42.56 ± 7.56 mmol/L
  Cholesterol in blood serum: 2.96 ± 0.52 mmol/L
  Creatinine in blood serum: 49.87 ± 8.12 mkmol/l
  Glucose in blood serum: 10.2 ± 0.74 mM
  Total protein in blood serum: 70.84 ± 7.47 g/L
  Urea in blood serum: 11.30 ± 0.80 Mkmol/l
[3]; 50 mg/kg
  Bilirubin (urine): <5 Mkmol/l
  Glucose (urine): <5 mmol/L
  Ketone bodies (urine): <1 mmol/L
  Potassium (urine): 5.78 ± 1.7 g/L
  Protein (urine): 0.69 ± 0.33 g/L
  Sodium (urine): 1.7 ± 0.3 g/L
  Urea (urine): 457 ± 144 mmol/L
  Urobilinogen (urine): <16 Mkmol/l
  pH (urine): 6.1 ± 0.3
[3]; 500 mg/kg
  Bilirubin (urine): <5 Mkmol/l
  Glucose (urine): <5 mmol/L
  Ketone bodies (urine): <1 mmol/L
  Potassium (urine): 6.24 ± 1.8 g/L
  Protein (urine): 0.76 ± 0.31 g/L
  Sodium (urine): 1.27 ± 0.3 g/L
  Urea (urine): 492 ± 187 mmol/L
  Urobilinogen (urine): <16 Mkmol/l
  pH (urine): 6.2 ± 0.2

## O=c1[nH][nH]c(=O)c2ncccc12.[Li] [Compound 6, lithium salt of pyrido[2,3-d]-6H-pyridazine-5,8-dione]
[4]; Control + compound
  γ-GTP in blood plasma, Ci: 8.27 ± 2.12 mE/l
  ALT in blood plasma, Ci: 114.5 ± 1.13 mE/l
  AST in blood plasma, Ci: 176.18 ± 3.26 mE/l
[4]; control + Morphine + Compound
  γ-GTP in blood plasma, Ci: 12.52 ± 2.02 mE/l
  ALT in blood plasma, Ci: 122.44 ± 2.01 mE/l
  AST in blood plasma, Ci: 198.34 ± 9.32 mE/l
